Measured values published in patent US8431341B2, “Compositions and methods for the identification of inhibitors of protein synthesis” (priority 2006, dated 2013).
[5mC] = 5-methylcytosine; m = 2'-O-methyl; r = 2'-OH (RNA)

System: fluorescent peptide that mimics phenylalanine synthetase
Assay: Binding of yeast tRNAPhe ASL RNA oligomers to a phenylalanine synthetase peptide mimic
Conditions: compared with the native RNA oligomer or the unmodified RNA oligomer; FIG. 2
Protocol: A set of experiments was conducted to identify an RNA oligomer substrate to be used in an assay to identify substrates for use in identifying inhibitors of tRNA binding to a phenylalanine synthetase from yeast. A peptide was first identified for use as a phenylalanine synthetase mimic. The peptide was labeled with a fluorescent peptide for use in detection in binding assays.
A series of RNA oligomer substrates were also synthesized containing modified nucleotides (FIG. 2).
To determine binding affinity, an assay of ASL for yeast tRNA^phe was prepared varying only in the number of post-transcriptional nucleotide base modifications. This array was probed using a peptide from a phage display library that bound to an ASL containing 3 modifications. The affect of modification on the affinity of a peptide to an RNA substrate-sequence (Sequence A in FIG. 2: 5′-CCAGACUGAAGAUCUGG) (SEQ ID NO: 18) is the primary unmodified yeast ASL^Phe. Sequence B in FIG. 2 (5′-CCAGACmUGm AAGAUm^5CUGG) (SEQ ID NO: 19) is a template ASL sequence indicating the locations of the modified nucleotides for the various combinations of modified nucleotide bases in the mimics of the anticodon stem loop. Sequence C in FIG. 2 (5′-CCAGACmUGmAAm1GAΨm^5CUGG) (SEQ ID NO: 20) is the sequence of the native yeast tRNA^phe. […]

With “5′-CCAGACmUGm AAGAUm^5CUGG (CCAGACUGAAGAUCUGG; sugars from the 5' end r5 m1 r1 m1 r9, [5mC] at 14, backbone not given here; listed as Yersinia enterocolitica)” the “affinity for a fluorescent peptide that mimics phenylalanine synthetase” value was “greater affinity”.
